Test results taken from ChEMBL document CHEMBL5346863, “Discovery of substituted benzyloxy-benzylamine inhibitors of acetyltransferase Eis and their anti-mycobacterial activity” (Eur J Med Chem, 2022).
In brackets after ≈: the same amount, converted by molar mass. Activity calls are given as the source filed them. The calls are words filed in the database; no cut-off is given here.

Experiments:
N-acetyltransferase Eis [1] = target: T1, N-acetyltransferase Eis (Mycobacterium tuberculosis (strain ATCC 25618 / H37Rv), UniProt P9WFK7); assay: Inhibition of wild-type Mycobacterium tuberculosis Eis expressed in Escherichia coli BL21(DE3) cells incubated for 5 mins by Ellman's method
T1 sequence (P9WFK7 whole entry): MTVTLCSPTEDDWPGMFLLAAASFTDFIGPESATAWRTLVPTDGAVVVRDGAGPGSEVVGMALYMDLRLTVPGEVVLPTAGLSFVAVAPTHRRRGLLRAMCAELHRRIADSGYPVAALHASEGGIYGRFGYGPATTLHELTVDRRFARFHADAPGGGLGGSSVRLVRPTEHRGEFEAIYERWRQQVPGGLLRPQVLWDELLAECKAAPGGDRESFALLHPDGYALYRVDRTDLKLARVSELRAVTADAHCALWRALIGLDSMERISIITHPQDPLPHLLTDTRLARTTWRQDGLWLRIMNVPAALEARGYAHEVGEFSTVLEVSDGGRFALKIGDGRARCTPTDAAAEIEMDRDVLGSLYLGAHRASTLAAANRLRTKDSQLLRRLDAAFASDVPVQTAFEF

[2] = test system: Mycobacterium tuberculosis; assay: Antibacterial activity against Mycobacterium tuberculosis H37Ra assessed as bacterial growth inhibition incubated 2 to 3 weeks by resazurin dye based assay; assay type: functional; conditions: time 2-3 weeks
[3] = test system: Mycobacterium tuberculosis; assay: Antibacterial activity against Mycobacterium tuberculosis H37Rv assessed as MIC of kanamycin A at 8.2 uM incubated for 24 hrs followed by kanamycin A addition measured after 6 days by alamarblue dye based assay; assay type: functional; conditions: 168 h, time 7 day
[4] = test system: Mycobacterium tuberculosis; assay: Antibacterial activity against Mycobacterium tuberculosis mc2 6230 assessed as bacterial growth inhibition incubated 2 to 3 weeks by resazurin dye based assay; assay type: functional; conditions: time 2-3 weeks
[5] = test system: Mycolicibacterium smegmatis; assay: Antibacterial activity against Mycobacterium smegmatis mc2 122 assessed as bacterial growth inhibition incubated for 2 to 3 weeks by resazurin dye based assay; assay type: functional; conditions: time 2-3 weeks
[6] = test system: Mycobacteroides abscessus; assay: Antibacterial activity against Mycobacterium abscessus ATCC 19977 assessed as bacterial growth inhibition incubated for 2 to 3 weeks by resazurin dye based assay; assay type: functional; conditions: time 2-3 weeks
Mycobacterium avium = assay: Antibacterial activity against Mycobacterium avium ATCC 25291 assessed as bacterial growth inhibition incubated for 2 to 3 weeks by resazurin dye based assay; assay type: functional; conditions: time 2-3 weeks
[7] = test system: Mycobacterium intracellulare; assay: Antibacterial activity against Mycobacterium intracellulare ATCC 13950 assessed as bacterial growth inhibition incubated for 2 to 3 weeks by resazurin dye based assay; assay type: functional; conditions: time 2-3 weeks
[8] = test system: Mycobacterium parascrofulaceum; assay: Antibacterial activity against Mycobacterium parascrofulaceum ATCC BAA-614 assessed as bacterial growth inhibition incubated for 2 to 3 weeks by resazurin dye based assay; assay type: functional; conditions: time 2-3 weeks
[9] = test system: Mycobacterium tuberculosis; assay: Antibacterial activity against Mycobacterium tuberculosis H37Rv assessed as MIC of kanamycin A at 100 uM incubated for 24 hrs followed by kanamycin A addition measured after 6 days by alamarblue dye based assay; assay type: functional; conditions: time 7.0 day
[10] = test system: Mycobacterium tuberculosis; assay: Antibacterial activity against Mycobacterium tuberculosis H37Rv assessed as MIC of kanamycin A at 106 uM incubated for 24 hrs followed by kanamycin A addition measured after 6 days by alamarblue dye based assay; assay type: functional, organism-based; conditions: time 7.0 day
[11] = test system: Mycobacterium tuberculosis; assay: Antibacterial activity against Mycobacterium tuberculosis K204 assessed as MIC of kanamycin A at 106 uM incubated for 24 hrs followed by kanamycin A addition measured after 6 days by alamarblue dye based assay; assay type: functional, organism-based; conditions: time 7.0 day
A549 [12] = assay: Cytotoxicity against human A549 cells upto 12.5 uM incubated for 24 hrs by resazurin dye based cell viability assay; assay type: toxicity; conditions: a549, 24 h
HEK293 [13] = assay: Cytotoxicity against HEK293 cells upto 12.5 uM incubated for 24 hrs by resazurin dye based cell viability assay; assay type: toxicity; conditions: human, hek293, 24 h
J774.1 [14] = assay: Cytotoxicity against mouse J774.1 cells upto 12.5 uM incubated for 24 hrs by resazurin dye based cell viability assay; assay type: toxicity; conditions: j774.1, 24 h
A549 [15] = assay: Cytotoxicity against human A549 cells at 200 uM incubated for 24 hrs by resazurin dye based cell viability assay; assay type: toxicity; conditions: a549, 24 h
HEK293 [16] = assay: Cytotoxicity against HEK293 cells at 200 uM incubated for 24 hrs by resazurin dye based cell viability assay; assay type: toxicity; conditions: human, hek293, 24 h
J774.1 [17] = assay: Cytotoxicity against mouse J774.1 cells at 200 uM incubated for 24 hrs by resazurin dye based cell viability assay; assay type: toxicity; conditions: j774.1, 24 h
[18] = test system: Mycobacterium tuberculosis; assay: Antibacterial activity against Mycobacterium tuberculosis H37Rv assessed as MIC of kanamycin A at 97.9 uM incubated for 24 hrs followed by kanamycin A addition measured after 6 days by alamarblue dye based assay; assay type: functional, organism-based; conditions: time 7.0 day
[19] = test system: Mycobacterium tuberculosis; assay: Antibacterial activity against Mycobacterium tuberculosis K204 assessed as MIC of kanamycin A at 97.9 uM incubated for 24 hrs followed by kanamycin A addition measured after 6 days by alamarblue dye based assay; assay type: functional, organism-based; conditions: time 7.0 day
[20] = test system: Mycobacterium tuberculosis; assay: Antibacterial activity against Mycobacterium tuberculosis mc2 6230 assessed as MIC of kanamycin A at 25 uM incubated for 24 hrs followed by kanamycin A addition measured after 6 days by alamarblue dye based assay; assay type: functional; conditions: mc2 6230, 168 h, time 7 day
[21] = test system: Mycobacterium tuberculosis; assay: Antibacterial activity against Mycobacterium tuberculosis mc2 6230 K204 assessed as MIC of kanamycin A at 25 uM incubated for 24 hrs followed by kanamycin A addition measured after 6 days by alamarblue dye based assay; assay type: functional; conditions: Mycobacterium tuberculosis, mc2 6230 K204, 168 h, time 7 day, read-out: MIC
N-acetyltransferase Eis [22] = target: T1, N-acetyltransferase Eis; assay: Binding affinity to wild-type Mycobacterium tuberculosis Eis expressed in Escherichia coli BL21(DE3) cells assessed as inhibition constant incubated for 5 mins by Ellman's method based Michaelis-Menten analysis
A549 [23] = assay: Cytotoxicity against human A549 cells >=50 uM incubated for 24 hrs by resazurin dye based cell viability assay; assay type: toxicity; conditions: a549, 24 h
[24] = test system: Mycobacterium tuberculosis; assay: Antibacterial activity against Mycobacterium tuberculosis mc2 6230 assessed as MIC of kanamycin A at 50 uM incubated for 24 hrs followed by kanamycin A addition measured after 6 days by alamarblue dye based assay; assay type: functional; conditions: mc2 6230, 168 h, time 7 day
[25] = test system: Mycobacterium tuberculosis; assay: Antibacterial activity against Mycobacterium tuberculosis mc2 6230 K204 assessed as MIC of kanamycin A at 50 uM incubated for 24 hrs followed by kanamycin A addition measured after 6 days by alamarblue dye based assay; assay type: functional; conditions: mc2 6230 K204, 168 h, time 7 day
[26] = test system: Mycobacterium tuberculosis; assay: Antibacterial activity against Mycobacterium tuberculosis H37Rv assessed as MIC of kanamycin A at 7.9 uM incubated for 24 hrs followed by kanamycin A addition measured after 6 days by alamarblue dye based assay; assay type: functional; conditions: 168 h, time 7 day
[27] = test system: Mycobacterium tuberculosis; assay: Antibacterial activity against Mycobacterium tuberculosis H37Rv assessed as bacterial growth inhibition measured after 6 days by alamarblue dye based assay; assay type: functional; conditions: 144 h, time 6 day
[28] = test system: Mycobacterium tuberculosis; assay: Antibacterial activity against Mycobacterium tuberculosis mc2 6230 assessed as bacterial growth inhibition measured after 6 days by alamarblue dye based assay; assay type: functional; conditions: mc2 6230, 144 h, time 6 day
[29] = test system: Mycobacterium tuberculosis; assay: Antibacterial activity against Mycobacterium tuberculosis mc2 6230 K204 assessed as bacterial growth inhibition measured after 6 days by alamarblue dye based assay; assay type: functional; conditions: mc2 6230 K204, 144 h, time 6 day
[30] = test system: Mycobacterium tuberculosis; assay: Antibacterial activity against Mycobacterium tuberculosis H37Rv assessed as MIC of kanamycin A at 6.3 uM incubated for 24 hrs followed by kanamycin A addition measured after 6 days by alamarblue dye based assay; assay type: functional; conditions: 168 h, time 7 day

Row | SMILES | IC50 (N-acetyltransferase Eis [1]) | MIC [2] | MIC [4] | MIC [5] | MIC [6] | MIC (Mycobacterium avium) | MIC [7] | Activity [9] | also measured
1 | Fc1ccc(COc2ccccc2CNCc2cccnc2)cc1 | 10 µM | 125 µM (≈ 40.3 µg/mL) | > 100 µM | > 62.5 µM | > 62.5 µM | > 62.5 µM | > 62.5 µM | – | MIC [3]: 2.5 mg/L; MIC [8]: > 62.5 µM
2 | Clc1ccc(COc2ccc(CNCc3ccncc3)cc2)cc1 | 2 µM | 3.9 µM (≈ 1.32 µg/mL) | 25 µM (≈ 8.47 µg/mL) | – | 62.5 µM (≈ 21.2 µg/mL) | > 62.5 µM | 2 µM (≈ 0.678 µg/mL) | Active | Activity [10]: Active; Activity [11]: Active; Activity (A549 [12]): Non-Toxic; Activity (HEK293 [13]): Non-Toxic; Activity (J774.1 [14]): Non-Toxic; Activity (A549 [15]): Toxic; Activity (HEK293 [16]): Toxic; Activity (J774.1 [17]): Toxic
3 | Clc1ccc(COc2ccccc2CNCc2cccnc2)cc1 | 2 µM | 62.5 µM (≈ 21.2 µg/mL) | 50 µM (≈ 16.9 µg/mL) | 62.5 µM (≈ 21.2 µg/mL) | > 62.5 µM | > 62.5 µM | – | Active | Activity [18]: Active; Activity [19]: Active; MIC [20]: < 1.25 µM; MIC [21]: > 10 µM; Ki (N-acetyltransferase Eis [22]): 1.16 µM; Activity (A549 [12]): Non-Toxic; Activity (HEK293 [13]): Non-Toxic; Activity (J774.1 [14]): Non-Toxic; Activity (A549 [23]): Toxic
4 | Brc1ccc(COc2ccccc2CNCc2ccccc2)cc1 | 1.3 µM | 31.3 µM (≈ 12 µg/mL) | 100 µM (≈ 38.2 µg/mL) | – | – | > 62.5 µM | 31.3 µM (≈ 12 µg/mL) | Active | MIC [24]: < 1.25 µM; MIC [25]: > 10 µM; Ki (N-acetyltransferase Eis [22]): 5.26 µM
5 | Clc1cccc(COc2ccccc2CNCc2cccnc2)c1 | 4.2 µM | – | 100 µM (≈ 33.9 µg/mL) | – | > 62.5 µM | > 62.5 µM | > 62.5 µM | – | MIC [26]: 7.9 mg/L; MIC [8]: > 62.5 µM
6 | NC[C@H]1O[C@H](O[C@H]2[C@H](O)[C@@H](O[C@H]3O[C@H](CO)[C@@H](O)[C@H](N)[C@H]3O)[C@H](N)C[C@@H]2N)[C@H](O)[C@@H](O)[C@@H]1O [KANAMYCIN] | – | – | < 1.25 µM | – | – | – | – | – | MIC [27]: 1.25 mg/L (≈ 2.58 µM); MIC [28]: < 1.25 µM; MIC [29]: 320 µM (≈ 155 µg/mL)
7 | Clc1ccc(COc2cccc(CNCc3cccnc3)c2)cc1 | 2.5 µM | 15.6 µM (≈ 5.29 µg/mL) | 50 µM (≈ 16.9 µg/mL) | 31.3 µM (≈ 10.6 µg/mL) | – | > 62.5 µM | 31.3 µM (≈ 10.6 µg/mL) | – | MIC [30]: 2.5 mg/L
